Test results reported in patent US20230278972A1, “SUBSTITUTED HALOALKYL SULFONANILIDE HERBICIDES” (FMC Corporation, priority 2020, published 2023).

Tests used:
Assay type in all cases: in vivo
[1] = system: barnyardgrass (Echinochloa crus-galli); experiment: Test A preemergence, barnyardgrass; conditions: Preemergence; for Barnyardgrass plant response rating: 125 g ai/ha, visual injury on 0 to 100 scale (0 no effect, 100 complete control), approximately 10 days; for Plant response rating, Barnyardgrass: 500 g ai/ha, 0 to 100 scale (0 no effect, 100 complete control)
How it was run: (§1)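 Seeds are sown in loam mixed with sand and sprayed on the soil surface right after planting for the preemergence test. Postemergence pots are sprayed once seedlings reach 2 to 10 cm at the one- to two-leaf stage. The same surfactant-containing, non-phytotoxic solvent formulation serves both.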

kochia (Bassia scoparia) [2] = experiment: Test A preemergence, kochia; conditions: Preemergence; for Kochia plant response rating: 125 g ai/ha, visual injury on 0 to 100 scale (0 no effect, 100 complete control), approximately 10 days; for Plant response rating, Kochia: 500 g ai/ha, 0 to 100 scale (0 no effect, 100 complete control)
How it was run: as §1

[3] = system: ragweed (common ragweed, Ambrosia artemisiifolia); experiment: Test A preemergence, ragweed; conditions: Preemergence; for Ragweed plant response rating: 125 g ai/ha, visual injury on 0 to 100 scale (0 no effect, 100 complete control), approximately 10 days; for Plant response rating, Ragweed: 500 g ai/ha, 0 to 100 scale (0 no effect, 100 complete control)
How it was run: as §1

[4] = system: Ryegrass, Italian (Italian ryegrass, Lolium multiflorum); experiment: Test A preemergence, Ryegrass, Italian; conditions: Preemergence; for Ryegrass, Italian plant response rating: 125 g ai/ha, visual injury on 0 to 100 scale (0 no effect, 100 complete control), approximately 10 days; for Plant response rating, Ryegrass, Italian: 500 g ai/ha, 0 to 100 scale (0 no effect, 100 complete control)
How it was run: as §1

[5] = system: Foxtail, Giant (giant foxtail, Setaria faberi); experiment: Test A preemergence, Foxtail, Giant; conditions: Preemergence; for Foxtail, Giant plant response rating: 125 g ai/ha, visual injury on 0 to 100 scale (0 no effect, 100 complete control), approximately 10 days; for Plant response rating, Foxtail, Giant: 500 g ai/ha, 0 to 100 scale (0 no effect, 100 complete control)
How it was run: as §1

[6] = system: pigweed (Amaranthus retroflexus); experiment: Test A preemergence, pigweed; conditions: for Pigweed plant response rating: 125 g ai/ha, visual injury on 0 to 100 scale (0 no effect, 100 complete control), approximately 10 days; for Plant response rating, Pigweed: 500 g ai/ha, 0 to 100 scale (0 no effect, 100 complete control)
How it was run: (§2)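 Postemergence ratings come from foliar sprays onto one- to two-leaf plants of 2 to 10 cm grown in loam/sand; preemergence ratings come from a directed spray onto the soil of newly seeded pots. Formulation was a surfactant-containing non-phytotoxic solvent blend.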

[7] = system: barnyardgrass (Echinochloa crus-galli); experiment: Test A postemergence, barnyardgrass; conditions: Postemergence, 0 to 100 scale (0 no effect, 100 complete control); for Plant response rating, Barnyardgrass: 125 g ai/ha; for Barnyardgrass plant response rating: 500 g ai/ha, visual injury vs untreated controls after approx. 10 days
How it was run: as §2

kochia (Bassia scoparia) [8] = experiment: Test A postemergence, kochia; conditions: Postemergence, 0 to 100 scale (0 no effect, 100 complete control); for Plant response rating, Kochia: 125 g ai/ha; for Kochia plant response rating: 500 g ai/ha, visual injury vs untreated controls after approx. 10 days
How it was run: as §1

[9] = system: ragweed (common ragweed, Ambrosia artemisiifolia); experiment: Test A postemergence, ragweed; conditions: Postemergence, 0 to 100 scale (0 no effect, 100 complete control); for Plant response rating, Ragweed: 125 g ai/ha; for Ragweed plant response rating: 500 g ai/ha, visual injury vs untreated controls after approx. 10 days
How it was run: as §1

[10] = system: Ryegrass, Italian (Italian ryegrass, Lolium multiflorum); experiment: Test A postemergence, Ryegrass, Italian; conditions: Postemergence, 0 to 100 scale (0 no effect, 100 complete control); for Plant response rating, Ryegrass, Italian: 125 g ai/ha; for Ryegrass, Italian plant response rating: 500 g ai/ha, visual injury vs untreated controls after approx. 10 days
How it was run: as §1

[11] = system: Foxtail, Giant (giant foxtail, Setaria faberi); experiment: Test A postemergence, Foxtail, Giant; conditions: Postemergence, 0 to 100 scale (0 no effect, 100 complete control); for Plant response rating, Foxtail, Giant: 125 g ai/ha; for Foxtail, Giant plant response rating: 500 g ai/ha, visual injury vs untreated controls after approx. 10 days
How it was run: as §1

[12] = system: pigweed (Amaranthus retroflexus); experiment: Test A postemergence, pigweed; conditions: Postemergence, 0 to 100 scale (0 no effect, 100 complete control); for Plant response rating, Pigweed: 125 g ai/ha; for Pigweed plant response rating: 500 g ai/ha, visual injury vs untreated controls after approx. 10 days
How it was run: as §1

[13] = system: wheat (Triticum aestivum); experiment: Test A postemergence, wheat; conditions: Postemergence, 0 to 100 scale (0 no effect, 100 complete control); for Plant response rating, Wheat: 125 g ai/ha; for Wheat plant response rating: 500 g ai/ha, visual injury vs untreated controls after approx. 10 days
How it was run: as §2

corn (Zea mays) = experiment: Test A postemergence, corn; conditions: Postemergence, 0 to 100 scale (0 no effect, 100 complete control); for Plant response rating, Corn: 125 g ai/ha; for Corn plant response rating: 500 g ai/ha, visual injury vs untreated controls after approx. 10 days
How it was run: as §1

[14] = system: blackgrass (Alopecurus myosuroides); experiment: Test A postemergence, blackgrass; conditions: Postemergence, 0 to 100 scale (0 no effect, 100 complete control); for Plant response rating, Blackgrass: 125 g ai/ha; for Blackgrass plant response rating: 500 g ai/ha, visual injury vs untreated controls after approx. 10 days
How it was run: as §1

[15] = system: galium (catchweed bedstraw, Galium aparine); experiment: Test A postemergence, galium; conditions: Postemergence, 0 to 100 scale (0 no effect, 100 complete control); for Plant response rating, Galium: 125 g ai/ha; for Galium plant response rating: 500 g ai/ha, visual injury vs untreated controls after approx. 10 days
How it was run: as §2

## Cc1cc(C)c(N(S(=O)(=O)C(F)(F)F)S(=O)(=O)C(F)(F)F)cc1C1=NOC2CCCC12 (stereo not drawn) [Compound 99]
[1]
  Barnyardgrass plant response rating: 90
  Plant response rating, Barnyardgrass: 100
Kochia (Bassia scoparia) [2]
  Kochia plant response rating: 70
  Plant response rating, Kochia: 100
[3]
  Ragweed plant response rating: 60
  Plant response rating, Ragweed: 90
[4]
  Ryegrass, Italian plant response rating: 50
  Plant response rating, Ryegrass, Italian: 90
[5]
  Foxtail, Giant plant response rating: 70
  Plant response rating, Foxtail, Giant: 80
[6]
  Pigweed plant response rating: 100
  Plant response rating, Pigweed: 100
[7]; visual injury approx. 10 days
  Plant response rating, Barnyardgrass: 70
[7]
  Barnyardgrass plant response rating: 90
Kochia (Bassia scoparia) [8]; visual injury approx. 10 days
  Plant response rating, Kochia: 40
Kochia (Bassia scoparia) [8]
  Kochia plant response rating: 90
[9]; visual injury approx. 10 days
  Plant response rating, Ragweed: 40
[9]
  Ragweed plant response rating: 80
[10]; visual injury approx. 10 days
  Plant response rating, Ryegrass, Italian: 0
[10]
  Ryegrass, Italian plant response rating: 60
[11]; visual injury approx. 10 days
  Plant response rating, Foxtail, Giant: 0
[11]
  Foxtail, Giant plant response rating: 10
[12]; visual injury approx. 10 days
  Plant response rating, Pigweed: 70
[12]
  Pigweed plant response rating: 100
[13]; visual injury approx. 10 days
  Plant response rating, Wheat: 0
[13]
  Wheat plant response rating: 50
Corn (Zea mays); visual injury approx. 10 days
  Plant response rating, Corn: 0
Corn (Zea mays)
  Corn plant response rating: 0
[14]; visual injury approx. 10 days
  Plant response rating, Blackgrass: 0
[14]
  Blackgrass plant response rating: 20
[15]; visual injury approx. 10 days
  Plant response rating, Galium: 90
[15]
  Galium plant response rating: 90

## Cc1cc(Cl)c(C2=NOC(C)(C)C2)cc1NS(=O)(=O)C(F)(F)F [Compound 183]
[1]
  Barnyardgrass plant response rating: 90
  Plant response rating, Barnyardgrass: 100
Kochia (Bassia scoparia) [2]
  Kochia plant response rating: 20
  Plant response rating, Kochia: 60
[3]
  Ragweed plant response rating: 20
  Plant response rating, Ragweed: 90
[4]
  Ryegrass, Italian plant response rating: 70
  Plant response rating, Ryegrass, Italian: 100
[5]
  Foxtail, Giant plant response rating: 50
  Plant response rating, Foxtail, Giant: 70
[6]
  Pigweed plant response rating: 70
  Plant response rating, Pigweed: 80
[7]
  Plant response rating, Barnyardgrass: 20
  Barnyardgrass plant response rating: 70
Kochia (Bassia scoparia) [8]
  Plant response rating, Kochia: 10
  Kochia plant response rating: 50
[9]
  Plant response rating, Ragweed: 60
  Ragweed plant response rating: 80
[10]
  Plant response rating, Ryegrass, Italian: 0
  Ryegrass, Italian plant response rating: 0
[11]
  Plant response rating, Foxtail, Giant: 0
  Foxtail, Giant plant response rating: 10
[12]
  Plant response rating, Pigweed: 30
  Pigweed plant response rating: 30
[13]
  Plant response rating, Wheat: 0
  Wheat plant response rating: 0
Corn (Zea mays)
  Plant response rating, Corn: 0
  Corn plant response rating: 30
[14]
  Plant response rating, Blackgrass: 10
  Blackgrass plant response rating: 10
[15]
  Plant response rating, Galium: 70
  Galium plant response rating: 90

## Cc1cc(C)c(N(S(=O)(=O)C(F)(F)F)S(=O)(=O)C(F)(F)F)cc1C(=O)N(C)CC1CC1 [Compound 169]
[1]
  Barnyardgrass plant response rating: 30
  Plant response rating, Barnyardgrass: 100
Kochia (Bassia scoparia) [2]
  Kochia plant response rating: 0
  Plant response rating, Kochia: 30
[3]
  Ragweed plant response rating: 40
  Plant response rating, Ragweed: 80
[4]
  Ryegrass, Italian plant response rating: 50
  Plant response rating, Ryegrass, Italian: 100
[5]
  Foxtail, Giant plant response rating: 20
  Plant response rating, Foxtail, Giant: 90
[6]
  Pigweed plant response rating: 60
  Plant response rating, Pigweed: 80
[7]
  Plant response rating, Barnyardgrass: 40
  Barnyardgrass plant response rating: 90
Kochia (Bassia scoparia) [8]
  Plant response rating, Kochia: 20
  Kochia plant response rating: 50
[9]
  Plant response rating, Ragweed: 60
  Ragweed plant response rating: 90
[10]
  Plant response rating, Ryegrass, Italian: 10
  Ryegrass, Italian plant response rating: 30
[11]
  Plant response rating, Foxtail, Giant: 10
  Foxtail, Giant plant response rating: 40
[12]
  Plant response rating, Pigweed: 40
  Pigweed plant response rating: 50
[13]
  Plant response rating, Wheat: 0
  Wheat plant response rating: 0
Corn (Zea mays)
  Plant response rating, Corn: 50
  Corn plant response rating: 90
[14]
  Plant response rating, Blackgrass: 0
  Blackgrass plant response rating: 20
[15]
  Plant response rating, Galium: 80
  Galium plant response rating: 90
